Patent US11266636B2, “Maleate salt of the free base of N-[5-(aminosulfonyl)-4-methyl-1,3-thiazol-2-yl]-N-methyl-2-[4-(2-pyridinyl)-phenyl]-acetamide, pharmaceutical formulations, methods of manufacture and uses thereof for the treatment of herpes viruses” (priority 2016, dated 2022)
Converted amounts (≈) assume the structure as drawn.

How the values were obtained:
herpes simplex virus-2 = settings: comparison of literature values; cited from earlier work
[1] = Solubility determination in different pharmaceutical excipients at ambient temperature; settings: for solubility at 22 h: thermodynamic from solid
Method: Dimethyl sulfoxide (DMSO) served as control solvent.
Suspensions were prepared by weighing the test items into glass vials and addition of the appropriate solvent. The suspensions were shortly vortex-mixed and shaken over-head for 22 hours. Aliquots (500 μL) were transferred to filtration devices with polyvinylidene fluoride membranes and the solid matter was separated by centrifugation. The filtrates were diluted (1:100) in acetonitrile/methanol/water/acetic acid (25+25+50+0.5, v+v+v+v).
Control solutions of all salts were prepared in DMSO at a concentration of 20 mg/mL and treated as described above. The solubility was determined by concentration measurement of the diluted filtrate of the oversaturated solutions.
Chromatographic separation was performed on a Phenomenex Luna C18(2), 5 μm column (150×2 mm) by gradient elution using 1% acetic acid and acetonitrile/methanol (1+1, v+v) containing 1% acetic acid. For detection, a diode-array detector was used. Absorption was recorded at a wavelength of 300 nm. A detailed method description was filed in the raw data folder.

[2] = Short-term stability in pharmaceutical excipients over two weeks (ambient temperature and 50° C.); type: physicochemical; settings: for Stability in polyethylene glycol (in words): two weeks storage at 50° C.
Method: Additionally, the solubility of the free base of pritelivir and its aforementioned salts in water was determined and the resulting pH was measured. […] For detection, a diode-array detector was used. Absorption was recorded at a wavelength of 300 nm. All calculations were carried out with Microsoft Excel 2010. Mean data are given as arithmetic means. Recoveries were calculated in comparison to the measured start concentration (t0).

[3] = Solubility in water and resulting pH; type: physicochemical; settings: for solubility at 22 h: water, thermodynamic from solid
Method: Additionally, the solubility of the free base of pritelivir and its aforementioned salts in water was determined and the resulting pH was measured.
For detection, a diode-array detector was used. Absorption was recorded at a wavelength of 300 nm.

[4] = Photostability (xenon lamp, ca. 2000 Wh/m^2, 29 hours, >310 nm), solids and acidic solutions; type: physicochemical; settings: 0.1 M hydrochloric acid/acetonitrile (75+25)
Method: The compounds were exposed as solids and dissolved in 0.1 M hydrochloric acid/acetonitrile (75+25, v+v) at a target concentration of 0.3 mg/mL. Corresponding dark control samples were prepared and placed in UV-light protected vials in the irradiation chamber to keep the ambient conditions equivalent. Additionally, untreated solids were dissolved and analyzed as reference samples. Two samples were prepared from each solid test item. Approximately 20 mg of each test item (corrected for free base) was weighed into quartz glass vials. A second aliquot was weighed into light protected glass vials (dark control). Both samples were placed inside the irradiation chamber. […] Two aliquots were prepared (irradiated and dark control sample). The dark control samples were stored inside the irradiation chamber in closed and light protected glass vials, while the photostressed solutions were stored in quartz flasks, equipped only with a loose quartz glass cover. During irradiation, the samples were partially evaporated due to heat production inside the irradiation chamber. The extent of evaporation was variable from sample to sample (the sulphate salt of pritelivir free base was almost completely evaporated). […] The samples (solutions and solid state) were irradiated with a xenon lamp at […] through a glass filter for 29 hours (total applied dose of UV-light ca. 2000 Wh/m^2). The instrument used was a Suntest CPS+ (Atlas). By the use of the glass filter, only wavelengths >310 nm were irradiated, leading to simulation of the ID65 standard (indoor indirect daylight standard). […] The recorded average chamber heat temperature was 38° C. […] The % peak area was determined for the pritelivir free base in all tested samples. […] Absorption was recorded at a wavelength of 280 nm. […] The degree of decomposition was determined by chromatographic separation of (UV-active) degradation products and by determination of the respective percentage of the total peak area (% total peak area) per chromatogram. As salts dissociate in solution, the peak area of the pritelivir free base was determined in all samples.

[5] = Relative solubility in simulated gastric and intestinal fluids (FaSSGF, FaSSIF, FeSSIF); type: physicochemical; settings: 2 hours; for Relative solubility in FaSSIF: fasted state simulated intestinal fluid, pH 6.5, 37° C.; for Relative solubility in FeSSIF: fed state simulated intestinal fluid, pH 5, 37° C.
Method: The pH was adjusted to 6.5 by addition of 1 N hydrochloric acid.
The pH was adjusted to 5 by addition of 1 N hydrochloric acid.
Suspensions of the mono ethane sulfonate salt, the maleate salt, the mono benzene sulfonate salt, the hemi ethane-1,2-disulfonate, the mesylate salt or the pritelivir free base were prepared as triplicates by weighing approximately 12 mg test item and addition of 600 μL FaSSGF, FaSSIF or FeSSIF (final concentration 20 mg/mL). The suspensions were incubated at 37° C. Aliquots (100 μL) were transferred into centrifugation devices (polyvinylidene difluoride membrane, 0.2 μm) for removal of solid matter (10 minutes at approximately 15000×g and 37° C.) after 0, 0.5, 1 and 2 hours. FaSSGF filtrates were diluted in acetonitrile to a final dilution of 1:1000. FaSSIF filtrates were diluted in acetonitrile to a final dilution of 1:50 and FeSSIF filtrates to a final dilution of 1:100.
The samples were analyzed for their content of the free base of pritelivir. […] As hydrolysis products were not determined only relative solubility was used for further evaluations of the results.

HSV-2 = settings: once daily suppressive therapy; cited from earlier work
[6] = 30% Captisol, aqueous with cosolvent or surfactant or cyclodextrin, Solubility in 30% Captisol, ambient temperature, 22 hours shaking
[7] = 30% hydroxypropyl-β-cyclodextrin (HP-beta CD), aqueous with cosolvent or surfactant or cyclodextrin, Solubility in 30% HP-beta CD, 30% Hydroxypropyl-β-cyclodextrin, ambient temperature
[8] = polyethylene glycol (PEG 400), organic solvent or mixture, Solubility in polyethylene glycol (PEG 400), PEG 400, ambient temperature
[9] = propylene glycol, organic solvent or mixture, Solubility in propylene glycol (PG), ambient temperature

For `C[C@H](Cn1cnc2c(N)ncnc21)OCP(=O)(O)O` [Tenofovir], the “IC50-values compared to the maleate salt” value (herpes simplex virus-2) is given as “significantly higher”.

`Cc1nc(N(C)C(=O)Cc2ccc(-c3ccccn3)cc2)sc1S(N)(=O)=O` [free base of pritelivir, N-[5-(aminosulfonyl)-4-methyl-1,3-thiazol-2-yl]-N-methyl-2-[4-(2-pyridinyl)-phenyl]-acetamide] showed a solubility at 22 h [1, 6] of 1790 µg/mL (≈ 4.45 mM), a solubility at 22 h [1, 7] of 1910 µg/mL (≈ 4.75 mM) and a solubility at 22 h [1, 8] of 89600 µg/mL (≈ 223 mM). The “Stability in ethanol, PEG and propylene glycol” value ([2]; two weeks, ambient temperature) was “slight decrease” and the solubility at 22 h [3] was 1.3 µg/mL (≈ 0.00323 mM).

`Cc1nc(N(C)C(=O)Cc2ccc(-c3ccccn3)cc2)sc1S(N)(=O)=O.O=C(O)/C=C\C(=O)O` [maleate salt, maleate salt of the free base of N-[5-(amino-sulfonyl)-4-methyl-1,3-thiazol-2-yl]-N-methyl-2-[4-(2-pyridinyl)phenyl]acetamide] gave a solubility at 22 h [1, 6] of 24500 µg/mL, a solubility at 22 h [1, 7] of 24100 µg/mL and a solubility at 22 h ([1]; ethanol, organic solvent or mixture, Solubility in ethanol, ambient temperature) of 439 µg/mL. The solubility at 22 h [1, 8] was 32200 µg/mL, the “Solubility in propylene glycol (PG)” value ([1]; propylene glycol, ambient temperature, listed as Maleate Salt of Free Base Pritelivir) was 5230 µg/mL and the solubility at 22 h [1, 9] was 5000 to 6000 µg/mL. The “% total peak area of the free base of pritelivir, irradiated solutions” value ([4]; 29 hours, total dose 2000 Wh/m^2) was 71.5%, the Solubility in water [3] was 480 µg/mL and the “Relative solubility in FaSSIF” value [5] was “essentially similar concentrations”. The “Relative solubility in FeSSIF” value [5] was “essentially similar concentrations”.

With `Cc1nc(N(C)C(=O)Cc2ccc(-c3ccccn3)cc2)sc1S(N)(=O)=O.O=S(=O)(O)c1ccccc1` [mono benzene sulfonate salt, N-methyl-N-(4-methyl-5-sulfamoylthiazol-2-VI)-2-(4-(pyridin-2-yl)phenyl)acetamide benzenesulfonate] the “Stability in polyethylene glycol (in words)” value [2] was “showed stability”, the “Relative solubility in FaSSIF” value [5] was “essentially similar concentrations” and the “Relative solubility in FeSSIF” value [5] was “essentially similar concentrations”.

In the case of `CCS(=O)(=O)O.Cc1nc(N(C)C(=O)Cc2ccc(-c3ccccn3)cc2)sc1S(N)(=O)=O` [mono ethane sulfonate salt, N-methyl-N-(4-methyl-5-sulfamoylthiazol-2-yl)-2-(4-(pyridin-2-yl)phenyl)acetamide ethanesulfonate], the solubility at 22 h [1, 9] is reported as 5000 to 6000 µg/mL, the solubility at 22 h [3] is reported as 175 to 606 µg/mL and the “Relative solubility in FaSSGF” value ([5]; fasted state simulated gastric fluid, pH 1.6, 37° C.) is reported as “highest relative solubility”. For the same compound, the “Relative solubility in FaSSIF” value [5] was “highest relative solubility” and the “Relative solubility in FeSSIF” value [5] was “highest relative solubility”.

For `Cc1nc(N(C)C(=O)Cc2ccc(-c3ccccn3)cc2)sc1S(N)(=O)=O.O=S(=O)(O)O` [sulfate salt, N-methyl-N-(4-methyl-5-sulfamoylthiazol-2-yl)-2-(4-(pyridin-2-yl)phenyl)acetamide Sulfate], the solubility at 22 h ([1]; organic solvent or mixture) was 12500 µg/mL, the “% total peak area of the free base of pritelivir, dark control samples of the acidic solutions” value [4] was 95.7% and the “Stability in polyethylene glycol (in words)” value [2] was “showed stability”. It also gave a solubility at 22 h [3] of 175 to 606 µg/mL.

In the case of `CC(C)[C@H](N)C(=O)OCCOCn1cnc2c(=O)[nH]c(N)nc21` [valacyclovir], the “Risk of transmission of genital herpes” value (HSV-2) is listed as “significantly reduces the risk of transmission”.

With “N-methyl-N-(4-methyl-5-sulfamoylthiazol-2-yl)-2-(4-(pyridin-2-yl)phenyl)acetamide hemiethane-1,2-disulphonate [hemi ethane-1,2-disulfonate salt]” the “% total peak area of the free base of pritelivir, dark control samples of the acidic solutions” value [4] was 94.7%.
